Data as given in US9320698B2, “Peptide tyrosinase inhibitors and uses thereof” (Escape Therapeutics, Inc., priority 2011, dated 2016).
No end group written: not given here.

What was measured:
mushroom tyrosinase [1] = biological target: T1, mushroom tyrosinase (Agaricus bisporus, UniProt C7FF04); experiment: Enzymatic assay of mushroom tyrosinase, L-tyrosine as substrate; format: biochemical
Experimental: The assay mixture was incubated at 37° C.
In order to assess this potential, their inhibitory activity against mushroom tyrosinase was tested.

human tyrosinase = biological target: T2, human tyrosinase (Homo sapiens, UniProt P14679); experiment: Inhibition of freshly extracted human tyrosinase, L-dopa as substrate; format: biochemical; conditions: at 200 μM
T2 construct: cells were harvested and lysed using 1% Triton X-100 in 0.067 M potassium phosphate buffer (pH 6.8); endogenous in cells; host or cells: primary human melanocytes (gift from Dr. Todd Ridky, Stanford), clarified Triton X-100 lysate
T2 sequence (P14679 19-529): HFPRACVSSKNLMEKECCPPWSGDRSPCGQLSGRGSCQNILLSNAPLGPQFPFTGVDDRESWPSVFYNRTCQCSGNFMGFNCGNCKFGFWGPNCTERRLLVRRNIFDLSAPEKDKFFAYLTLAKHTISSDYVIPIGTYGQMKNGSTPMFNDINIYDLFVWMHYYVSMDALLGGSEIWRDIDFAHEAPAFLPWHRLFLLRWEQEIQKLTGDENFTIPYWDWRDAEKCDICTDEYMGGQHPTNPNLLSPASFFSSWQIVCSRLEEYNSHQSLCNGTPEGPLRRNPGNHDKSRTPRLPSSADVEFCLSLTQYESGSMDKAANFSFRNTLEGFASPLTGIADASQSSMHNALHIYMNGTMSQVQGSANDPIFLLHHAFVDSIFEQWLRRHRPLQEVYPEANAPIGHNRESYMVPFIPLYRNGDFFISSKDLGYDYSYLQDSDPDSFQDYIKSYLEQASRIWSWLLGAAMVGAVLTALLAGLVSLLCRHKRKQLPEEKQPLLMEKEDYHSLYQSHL

mushroom tyrosinase [2] = biological target: T1, mushroom tyrosinase; experiment: Kinetic studies of mushroom tyrosinase (Lineweaver-Burk, nonlinear regression); format: biochemical
Experimental: The concentration of mushroom tyrosinase [E] was 24 units/ml. […] [I] ranged from 0 to 0.3 mM. Data were obtained as mean values of 1/V, inverse of the increase of absorbance at wavelength of 475 nm per minute (ΔA475/min) for 5 independent trials. Michaelis Menten constant (Km) and the dissociation constant Ki were derived using nonlinear regression analysis with GraphPad Prism 5.
Experiments were conducted using the same protocol as above except for changes in concentration of [E], [S] and [I]. [E] was 24 units/ml, [S] was 0.05, 0.1, 0.25, 0.5, 0.75 and 1 mM, and [I] was 0, 0.03, 0.1, 0.3 and 1 mM. Lineweaver-Burk reciprocal plots were generated to determine the mode of inhibition (Burk, D., Lineweaver, H., and Horner, C. K. (1934) J Bacteriol 27, 325-340), and Michaelis Menten plots were used to determine Vmax and Km. Nonlinear regression using GraphPad Prism 5 software was used to determine Ki. Prism calculates the Ki using the equation of Cheng, Y., and Prusoff, W. H. (1973) Biochem Pharmacol 22, 3099-3108.

tyrosinase = conditions: read-out: published IC50; published value; cited from earlier work
[3] = test system: melanocytes, keratinocytes and fibroblasts; conditions: for oligopeptides a minimum ratio (3 mM / IC50)
Excerpt: An ideal therapeutic agent should have a ratio that is higher than two to be considered safe for long-term use in humans.

[4] = test system: primary human melanocytes; conditions: 6 d
Experimental: (§1) Cells were seeded at equal numbers and incubated with varying concentrations of test samples for 1 day, 3 days and 6 days, harvested, stained with trypan blue, and then counted. The assay was carried out in triplicate, and the % cell death was calculated according to the formula shown in Examples.
(§2) Cellular toxicity was measured using a trypan blue dye exclusion assay. Cells were cultured in 6-well plates at a density of 4×10^5 cells/well for 1, 3, or 6 d in 2 ml of medium. […] The plates were incubated at 37° C. in a humidified 5% CO2 chamber, harvested at the appropriate time, treated with trypan blue, and then counted using a hemacytometer. Cytotoxicity was measured according to the following formula: [1−(# of cells in control−# of live cells in test sample)/# of cells in control]×100%.
(§3) The cytotoxic effect of P16-18 on primary human melanocytes, keratinocytes, and fibroblasts were then assessed at 1, 3, and 6 d using trypan blue exclusion.

[5] = test system: primary human keratinocytes; conditions: 6 d
Experimental: as §1, §2, §3

[6] = test system: primary human fibroblasts; conditions: 6 d, 30 μM
Experimental: as §1, §2, §3

MNTI cells = experiment: Melanin content measurement in MNTI cells; format: cell-based, human; conditions: 50 μM HQ, 3 days
[7] = test system: primary human melanocytes; conditions: 72 h
Experimental: (§4) The three cell types were incubated with varying concentrations of the test compounds for 72 h at 37° C. and then processed using the MTT assay. Data are presented as % toxicity relative to the control as a function of concentration, and plotted as means±S.E of 5 independent trials. **p<0.01.
(§5) Keratinocytes, fibroblast, and melanocyte proliferation rates were determined using a TACS® MTT Cell Proliferation Kit (R&D systems, Minneapolis, Minn.). Cells were plated at 2.5×10^4/well in 96-well plates in a humidified atmosphere with 5% CO2 at 37° C. Twenty-four h after plating, test samples were added and cultures were incubated for an additional 72 h. The remainder of the procedure was performed following the manufacturer's protocol.
(§6) Proliferation rates were then assessed at 3 d using an MTT assay.

[8] = test system: primary human keratinocytes; conditions: 72 h
Experimental: as §4, §5, §6

[9] = test system: primary human fibroblasts; conditions: 72 h
Experimental: as §4, §5, §6

T1 sequence (C7FF04 1-392): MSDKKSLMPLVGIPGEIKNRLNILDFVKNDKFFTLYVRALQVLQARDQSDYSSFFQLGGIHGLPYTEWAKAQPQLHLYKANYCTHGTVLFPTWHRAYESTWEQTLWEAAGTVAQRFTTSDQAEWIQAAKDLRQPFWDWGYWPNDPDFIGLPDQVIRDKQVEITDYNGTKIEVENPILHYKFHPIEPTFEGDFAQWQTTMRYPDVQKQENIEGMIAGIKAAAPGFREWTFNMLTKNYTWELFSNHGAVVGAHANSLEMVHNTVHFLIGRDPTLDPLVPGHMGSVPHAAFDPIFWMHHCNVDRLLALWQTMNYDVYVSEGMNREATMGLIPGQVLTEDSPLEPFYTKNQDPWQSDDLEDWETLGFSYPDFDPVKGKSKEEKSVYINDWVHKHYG
T1 sequence (G1K3P4 entry or part of it, further chain): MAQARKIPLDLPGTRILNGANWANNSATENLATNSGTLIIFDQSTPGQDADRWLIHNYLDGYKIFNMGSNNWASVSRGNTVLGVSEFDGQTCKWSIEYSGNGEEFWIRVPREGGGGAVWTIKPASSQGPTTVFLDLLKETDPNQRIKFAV

For RRFVCC [Peptide P15], the “tyrosinase inhibition (in words)” value (mushroom tyrosinase [1]; mushroom tyrosinase) was “weak inhibition”.
In the case of RRWWRRYY [Peptide P16], the “human tyrosinase activity reduced by” value (human tyrosinase) is reported as 30%.
For RRRYWYYR [Peptide P17], the “human tyrosinase activity reduced by” value (human tyrosinase) was 12%.
With “RRFVCC (chains of the parent or of the whole protein) [Peptide P15]” the Ki (mushroom tyrosinase [2]; Table 4, mushroom tyrosinase) was 167 ± 11 µM, the IC50 (mushroom tyrosinase [1]; Table 4, mushroom tyrosinase) was 1120 ± 50 µM and the IC50 (mushroom tyrosinase [1]; mushroom tyrosinase) was 1100 µM.
In the case of `Oc1ccc(O)cc1` [HQ, hydroquinone], the IC50 (tyrosinase) is given as roughly 700 µM, the Nature of inhibition (mushroom tyrosinase [2]; Table 4, from Lineweaver Burk plots) is given as “competitive” and the “ratio of 50% cytotoxic concentration to IC50” value [3] is given as “significantly less than one”. For the same compound, the melanocyte cell death ([4]; 20 μM) was 50±3%, the cell death ([4]; 30 μM) was 70±3% and the “cytotoxicity / cell death” value ([4]; 100 μM) was 100%. For the same compound, the cell death ([5]; 300 μM) was 42±3%, the “rate of cell death” value ([5]; 3 mM) was 77±4% and the cell death [6] was 60±2%. The “human tyrosinase activity reduced by” value (human tyrosinase) was 5%, the “melanin content reduced by” value (MNTI cells) was 50±4% and the “reduction in proliferation rate” value ([7]; 100 μM) was 50±3%. For the same compound, the “proliferation inhibited by” value ([7]; 3 mM) was “over 90%”, the “reduction in proliferation rate” value ([8]; 100 μM) was 30±3% and the “proliferation inhibited by” value ([8]; 3 mM) was “up to 63±3%”. The “reduction in proliferation rate” value ([9]; 100 μM) was 45±2% and the “proliferation inhibited by” value ([9]; 3 mM) was “over 90%”.
RRFVLL [Peptide P14] showed an IC50 (mushroom tyrosinase [1]; mushroom tyrosinase) of 1800 µM.
With RRYWYWRR [Peptide P18] the “human tyrosinase activity reduced by” value (human tyrosinase) was 25%.
